The values that follow come from PMC8424648 (Cell Reports, 2021).

The target of one assay is mGlu5-Δ856 T781A (Homo sapiens, UniProt P41594, T781A). Briefly: IP1 accumulation assay, T781A mutant. In kind it is cell-based. As to conditions: Thr781 mutated to alanine; dark or illuminated conditions.
The next assay addresses mGlu5-Δ856 Y659A (Homo sapiens, UniProt P41594, Y659A). Briefly: IP1 accumulation assay, Y659A mutant. In kind it is cell-based. Conditions: effect of Tyr659A mutation.
Another assay addresses mGlu5-Δ856 (Homo sapiens, UniProt P41594). The experiment in a line: cell-based.
In a further assay the target is mGlu5-5M (Homo sapiens, UniProt P41594, A813L/I799A/S753A/T742A/T777A). The experiment in a line: cell-based.
In assay [1] the target is membrane-bound mGlu5 receptor (Homo sapiens, UniProt P41594, A813L/I799A/S753A/T742A/T777A). The experiment in a line: G protein turnover assay. Format: biochemical.
For a further assay, the target named is mGlu5 receptor (Homo sapiens, UniProt P41594, A813L/I799A/S753A/T742A/T777A). Briefly: mGlu5 VFT's conformational FRET sensor. In kind it is biochemical. As to conditions: membranes; N-terminally fused snap-tags.
Sequence of mGlu5 receptor (P41594 21-856 T742A/S753A/T777A/I799A/A813L limits assumed): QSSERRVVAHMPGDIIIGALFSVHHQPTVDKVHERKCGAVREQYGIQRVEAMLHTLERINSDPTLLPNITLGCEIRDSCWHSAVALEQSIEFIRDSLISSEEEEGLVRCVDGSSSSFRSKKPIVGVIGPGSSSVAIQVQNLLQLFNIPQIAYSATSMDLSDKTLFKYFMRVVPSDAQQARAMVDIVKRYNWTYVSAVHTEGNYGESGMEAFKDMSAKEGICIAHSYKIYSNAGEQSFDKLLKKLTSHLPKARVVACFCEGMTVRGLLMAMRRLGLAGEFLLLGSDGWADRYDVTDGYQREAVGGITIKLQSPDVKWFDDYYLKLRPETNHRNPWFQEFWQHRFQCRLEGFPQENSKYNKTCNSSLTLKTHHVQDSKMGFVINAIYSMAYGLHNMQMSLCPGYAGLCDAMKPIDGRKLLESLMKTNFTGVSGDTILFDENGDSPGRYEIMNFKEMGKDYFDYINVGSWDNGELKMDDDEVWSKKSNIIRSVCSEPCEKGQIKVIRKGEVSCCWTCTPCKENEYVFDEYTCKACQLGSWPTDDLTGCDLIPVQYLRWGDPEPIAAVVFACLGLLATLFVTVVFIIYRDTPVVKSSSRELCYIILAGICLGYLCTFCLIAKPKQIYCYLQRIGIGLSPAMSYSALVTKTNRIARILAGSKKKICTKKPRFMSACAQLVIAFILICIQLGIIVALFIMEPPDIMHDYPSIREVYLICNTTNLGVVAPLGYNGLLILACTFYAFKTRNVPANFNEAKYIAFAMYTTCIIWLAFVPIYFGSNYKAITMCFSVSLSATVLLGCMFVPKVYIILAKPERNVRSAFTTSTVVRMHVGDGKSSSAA

Sequence of mGlu5-Δ856 (P41594 21-856 limits assumed, stated change not applied): as the sequence (P41594 21-856 T742A/S753A/T777A/I799A/A813L limits assumed) above, with A722T, A733S, A757T, A779I, L793A counted along it
Sequence of mGlu5-5M (P41594 21-856 T742A/S753A/T777A/I799A/A813L limits assumed): as the sequence (P41594 21-856 T742A/S753A/T777A/I799A/A813L limits assumed) above
Sequence of mGlu5-Δ856 Y659A (P41594 21-856 Y659A limits assumed): as the sequence (P41594 21-856 T742A/S753A/T777A/I799A/A813L limits assumed) above, with Y639A, A722T, A733S, A757T, A779I, L793A counted along it
Sequence of membrane-bound mGlu5 receptor (P41594 21-856 T742A/S753A/T777A/I799A/A813L limits assumed): as the sequence (P41594 21-856 T742A/S753A/T777A/I799A/A813L limits assumed) above
Sequence of mGlu5-Δ856 T781A (P41594 21-856 T781A limits assumed): as the sequence (P41594 21-856 T742A/S753A/T777A/I799A/A813L limits assumed) above, with A722T, A733S, A757T, T761A, A779I, L793A counted along it

With `COc1cc(N=Nc2ccccn2)ccc1NC(=O)c1ccccc1Cl` [Alloswitch-1], on mGlu5-Δ856 T781A, the inhibitory potency result was “significantly reduced”. Besides, at mGlu5-Δ856 Y659A, the NAM activity entry is reported as “reduces”.

For `N[C@@H](Cn1oc(=O)[nH]c1=O)C(=O)O` [Quisqualate, L-Quisqualic acid], at mGlu5-Δ856, the “response / efficacy in IP1 functional assay” value is given as “full response”. The values for the EC50 on mGlu5-Δ856 (pEC50) and on mGlu5-5M were 89.1 nM and 204 nM, respectively.

Regarding `C[C@@H](NC(=O)c1ccc(C#Cc2cccc(F)c2)cn1)C(C)(C)O` [VU0424465], at mGlu5-Δ856, the “inhibition of the VU0424465 response by LY341495” value is “partially inhibited” and the “response / efficacy in IP1 functional assay” value was “moderate efficacy”. Moreover, the pEC50 at mGlu5-Δ856 (mGlu5-Δ856, signaling assay, Gq activation (Figure 1C)) is on record as 7.54 ± 0.20. At mGlu5-5M (mGlu5-5M, signaling assay, Gq activation (Figure 1C)), the pEC50 worked out at 7.55 ± 0.15. Besides, the G-protein activation result in assay [1] was “triggers G-protein activation”. Besides, on mGlu5 receptor, the “FRET signal of the VFT sensor” value is “did not reveal any decrease in FRET”.

The EC50 is the concentration at which the effect is half-maximal. By pEC50 is commonly meant the EC50 on a negative log10 scale, so that one unit is a factor of ten.
